ChEMBL document CHEMBL1146685, “The difluoromethylene group as a replacement for the labile oxygen in steroid sulfates: a new approach to steroid sulfatase inhibitors” (Bioorg Med Chem Lett, 2004)
Each block holds one molecule with its values, some of them ahead of it.

Tests used:
Steryl-sulfatase [1] = target: T1, Steryl-sulfatase (Homo sapiens, UniProt P08842); assay: (§1) Inhibitory activity against steroid sulfatase (STS)
T1 sequence (P08842 whole entry): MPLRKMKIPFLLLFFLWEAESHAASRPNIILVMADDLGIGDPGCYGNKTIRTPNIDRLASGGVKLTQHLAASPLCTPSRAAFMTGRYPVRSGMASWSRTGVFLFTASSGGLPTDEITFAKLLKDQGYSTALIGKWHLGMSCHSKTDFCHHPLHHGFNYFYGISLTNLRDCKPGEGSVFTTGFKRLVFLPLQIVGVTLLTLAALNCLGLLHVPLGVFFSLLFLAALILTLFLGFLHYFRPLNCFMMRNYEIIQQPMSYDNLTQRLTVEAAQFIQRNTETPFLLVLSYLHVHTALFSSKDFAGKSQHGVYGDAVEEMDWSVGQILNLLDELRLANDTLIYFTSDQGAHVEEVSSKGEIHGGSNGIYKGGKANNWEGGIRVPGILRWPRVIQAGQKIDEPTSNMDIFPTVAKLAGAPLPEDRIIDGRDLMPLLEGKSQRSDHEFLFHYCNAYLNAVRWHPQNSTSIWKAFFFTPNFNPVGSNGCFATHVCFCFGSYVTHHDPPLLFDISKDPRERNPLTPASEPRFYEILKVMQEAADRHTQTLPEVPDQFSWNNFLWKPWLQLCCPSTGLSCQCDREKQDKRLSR

Steryl-sulfatase [2] = target: T1, Steryl-sulfatase; assay: Competitive inhibitory activity against steroid sulfatase (STS)
[3] = target: T2, Steryl-sulfatase (Homo sapiens) (UniProt P08842); assay: as §1
T2 sequence (whole entry): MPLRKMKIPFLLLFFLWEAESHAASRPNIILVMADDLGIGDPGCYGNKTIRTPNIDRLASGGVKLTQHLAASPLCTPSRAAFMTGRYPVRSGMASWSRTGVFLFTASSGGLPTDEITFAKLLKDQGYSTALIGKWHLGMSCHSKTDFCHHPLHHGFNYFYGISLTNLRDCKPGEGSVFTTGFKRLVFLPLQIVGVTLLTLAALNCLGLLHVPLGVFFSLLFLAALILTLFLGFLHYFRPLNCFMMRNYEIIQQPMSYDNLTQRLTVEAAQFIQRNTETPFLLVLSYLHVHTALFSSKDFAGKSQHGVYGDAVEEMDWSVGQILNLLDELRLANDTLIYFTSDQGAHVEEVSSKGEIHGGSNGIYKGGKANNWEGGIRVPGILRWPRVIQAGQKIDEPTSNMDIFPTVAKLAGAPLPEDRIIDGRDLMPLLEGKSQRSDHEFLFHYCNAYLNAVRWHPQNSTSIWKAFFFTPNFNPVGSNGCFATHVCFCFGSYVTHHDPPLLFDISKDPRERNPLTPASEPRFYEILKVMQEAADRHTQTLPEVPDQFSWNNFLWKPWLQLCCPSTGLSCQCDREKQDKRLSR

Steryl-sulfatase [4] = target: T1, Steryl-sulfatase; assay: Inhibitory activity against steroid sulfatase (STS) using methodology of Li et al.
[5] = target: T2, Steryl-sulfatase (Homo sapiens)
[6] = substrate: C[C@]12CC[C@@H]3c4ccc(OS(=O)(=O)O)cc4CC[C@H]3[C@@H]1CCC2=O; assay: Michaelis-Menten constant steroid sulfatase (STS) was determined

Ki (Steryl-sulfatase [1]): 140 µM
Molecule: C[C@]12CC[C@@H]3c4ccc(CS(=O)(=O)O)cc4CC[C@H]3[C@@H]1CC/C2=C\O

Ki (Steryl-sulfatase [1]): 37 µM
Molecule: C[C@]12CC[C@@H]3c4ccc(C(F)(F)S(=O)(=O)O)cc4CC[C@H]3[C@@H]1CC/C2=C\O

Molecule: C[C@]12CC[C@@H]3c4ccc(C(F)(F)S(=O)(=O)O)cc4CCC3[C@@H]1CCC2=O (single isomer, unassigned)
Ki (Steryl-sulfatase [2]): 57 µM

Alpha Ki [3]: 213 µM
Ki (Steryl-sulfatase [1]): 72.7 µM
Molecule: C[C@]12CC[C@@H]3c4ccc(Cc5nnn[nH]5)cc4CCC3[C@@H]1CCC2=O (single isomer, unassigned)

Ki (Steryl-sulfatase [2]): 16 µM
Molecule: C[C@]12CC[C@@H]3c4ccc(C(F)(F)C5N=NN=N5)cc4CC[C@H]3[C@@H]1CCC2=O

Molecule: C[C@]12CC[C@@H]3c4ccc(CS(=O)(=O)O)cc4CCC3[C@@H]1CCC2=O (single isomer, unassigned)
Ki (Steryl-sulfatase [4]): 600 µM
Alpha Ki [5]: 1380 µM
Ki (Steryl-sulfatase [1]): 140 µM

B1: Steryl-sulfatase (Homo sapiens), P08842 (protein)
chain: MPLRKMKIPFLLLFFLWEAESHAASRPNIILVMADDLGIGDPGCYGNKTIRTPNIDRLASGGVKLTQHLAASPLCTPSRAAFMTGRYPVRSGMASWSRTGVFLFTASSGGLPTDEITFAKLLKDQGYSTALIGKWHLGMSCHSKTDFCHHPLHHGFNYFYGISLTNLRDCKPGEGSVFTTGFKRLVFLPLQIVGVTLLTLAALNCLGLLHVPLGVFFSLLFLAALILTLFLGFLHYFRPLNCFMMRNYEIIQQPMSYDNLTQRLTVEAAQFIQRNTETPFLLVLSYLHVHTALFSSKDFAGKSQHGVYGDAVEEMDWSVGQILNLLDELRLANDTLIYFTSDQGAHVEEVSSKGEIHGGSNGIYKGGKANNWEGGIRVPGILRWPRVIQAGQKIDEPTSNMDIFPTVAKLAGAPLPEDRIIDGRDLMPLLEGKSQRSDHEFLFHYCNAYLNAVRWHPQNSTSIWKAFFFTPNFNPVGSNGCFATHVCFCFGSYVTHHDPPLLFDISKDPRERNPLTPASEPRFYEILKVMQEAADRHTQTLPEVPDQFSWNNFLWKPWLQLCCPSTGLSCQCDREKQDKRLSR
Km [6]: 21 µM
